Source: US20140303092A1 (CHIMERIX, INC., priority 2011, published 2014)

Assay: Study HDP-CDV-201: safety and tolerability (adverse events, laboratory abnormalities, discontinuations)
Type: in vivo, human (adult allogeneic HSCT recipients)
Protocol: Clinical Studies of HDP-CDV were performed and described in detail in the following Examples. For example, HDP-CDV-201 is a placebo-controlled, dose-escalating trial in HSCT CMV (R+) recipients, evaluating the ability of HDP-CDV to prevent or control CMV infection was carried out. Five cohorts were established in which participants or subjects received either placebo or the HDP-CDV orally, in doses ranging from 40 mg weekly (QW) to 200 mg twice weekly (BIW). Subjects who were post-HSCT were enrolled at the time of engraftment and randomized to HDP-CDV or placebo (3 to 1 ratio) and received blinded therapy until approximately 100 day post-transplantation. HDP-CDV doses were 40 mg QW, 100 mg QW, 200 mg QW, 200 mg BIW and 100 mg BIW. Escalation to the next dose was decided by the data monitoring committee after review of the safety data from the previous Cohort. Subjects who developed CMV disease or CMV infection requiring pre-emptive therapy with local standard of care were discontinued from blinded therapy and followed for 4 weeks. Subjects who completed treatment with blinded therapy were followed for 8 weeks post-therapy.
Data from Study HDP-CDV-201 also provided characterization of the safety and tolerability profile of HDP-CDV when administered for the prevention or control of CMV infection in high risk (R^+) post-HSCT adult subjects.
The Safety population (SAFETY) included all randomized subjects who took at least one dose of study treatment. This population was used to summarize safety outcomes based on the treatment actually received, in cases where a subject was treated contrary to the randomization schedule.
The safety and tolerability profile of HDP-CDV, including subject demographics and Baseline characteristics; the AE profile; and laboratory abnormalities of interest were analyzed in the cohorts followed in this investigation.
Subjects completing the treatment period received a full course of study medication; those completing the entire study attended visits through 8 weeks of follow up. Subjects who discontinued treatment may have done so for protocol specified reasons (e.g. development of clinically significant CMV infection requiring preemptive treatment with excluded anti-CMV medications) or for other reasons (e.g., withdrawal, adverse events, loss to follow-up). The disposition of subjects in Study HDP-CDV-201 during the double-blind, placebo-controlled treatment period (through Week 11) is listed by dosing Cohort in TABLE 23.
Adverse events were examined by severity to ensure that all safety signals were identified in this study population. Because of the frequency of events in HSCT recipients, particular attention was given to evaluation of Grade 3 […], 4 (severe), and 5 (fatal) adverse events.
Only those preferred terms for which at least one Grade 3 or higher event was experienced in any treatment group are listed. Cytomegalovirus-related AEs are excluded from this analysis.
HDP-CDV is a lipid conjugate of CDV. Because CDV is known to have adverse effects on renal function and bone marrow, decreased GFR and persistent neutropenia were identified as AEs of special interest. Key renal and hematological (TABLE 30) laboratory parameters were measured and listed below by Study HDP-CDV-201 treatment groups. TABLE 30 includes abnormal levels of serum creatinine, neutrophils, platelets, WBCs, and hemoglobin and includes data at Screening and during the treatment period.
A common metric for unit based dosing of medications is by weight (mg/kg). When the distribution of weights was examined for all subjects participating in the study, the median was 78 kg and the lower 25th percentile weight was approximately 65 kg, which translates to a cut-off of ˜3 mg/kg for a 200 mg total weekly dose. Based upon this approach, a cut-off of 3 mg/kg was used to assess the frequency of diarrhea and associated GI AEs reported for the subjects in Cohorts 3 or 4a (TABLE 40).

## CCCCCCCCCCCCCCCCOCCCOP(=O)(O)COC(CO)Cn1ccc(N)nc1=O (stereo not drawn) [HDP-CDV]
40 mg QW
  TEAE Pneumonia, Grade 4: 1 (4.0%)
  TEAE Pneumonia, Grade 5: 0
  TEAE Pyrexia, Frequency: 1 (4.0%)
  TEAE Pyrexia, Grade 2: 1 (4.0%)
  TEAE Pyrexia, Grade 3: 0
  TEAE Pyrexia, Grade 4: 0
  TEAE Pyrexia, Grade 5: 0
  TEAE Renal Failure, Frequency: 1 (4.0%)
  TEAE Renal Failure, Grade 2: 0
  TEAE Renal Failure, Grade 3: 1 (4.0%)
  TEAE Renal Failure, Grade 4: 0
  TEAE Renal Failure, Grade 5: 0
  TEAE Staphylococcal Bacteremia, Frequency: 0
  TEAE Staphylococcal Bacteremia, Grade 2: 0
  TEAE Staphylococcal Bacteremia, Grade 3: 0
  TEAE Staphylococcal Bacteremia, Grade 4: 0
  TEAE Staphylococcal Bacteremia, Grade 5: 0
  TEAE Thrombocytopenia, Frequency: 3 (12.0%)
  TEAE Thrombocytopenia, Grade 2: 1 (4.0%)
  TEAE Thrombocytopenia, Grade 3: 1 (4.0%)
  TEAE Thrombocytopenia, Grade 4: 1 (4.0%)
  TEAE Thrombocytopenia, Grade 5: 0
  TEAE Vomiting, Frequency: 2 (8.0%)
  TEAE Vomiting, Grade 2: 1 (4.0%)
  TEAE Vomiting, Grade 3: 0
  TEAE Vomiting, Grade 4: 0
  TEAE Vomiting, Grade 5: 0
  subjects discontinued due to acute renal failure: one
40 mg QW, n = 25
  Subjects Reporting Diarrhea as an AE: 3 (12.0%)
40 mg QW, active treatment period
  Discontinuation: Death: 1 (4.0%) Subject n (%)
40 mg QW, active treatment period through Week 11
  Discontinuation: Adverse event: 3 (12.0%) Subject n (%)
100 mg BIW
  TEAE ALT increased, Frequency: 9 (18.0%)
  TEAE ALT increased, Grade 2: 1 (2.0%)
  TEAE ALT increased, Grade 3: 4 (8.0%)
  TEAE ALT increased, Grade 4: 0
  TEAE ALT increased, Grade 5: 0
  TEAE AML, Recurrent, Frequency: 3 (6.0%)
  TEAE AML, Recurrent, Grade 2: 1 (2.0%)
  TEAE AML, Recurrent, Grade 3: 0
  TEAE AML, Recurrent, Grade 4: 1 (2.0%)
  TEAE AML, Recurrent, Grade 5: 1 (2.0%)
  TEAE AST increased, Frequency: 5 (10.0%)
  TEAE AST increased, Grade 2: 1 (2.0%)
  TEAE AST increased, Grade 3: 3 (6.0%)
  TEAE AST increased, Grade 4: 0
  TEAE AST increased, Grade 5: 0
  TEAE Abdominal pain, Frequency: 13 (26.0%)
  TEAE Abdominal pain, Grade 2: 1 (2.0%)
  TEAE Abdominal pain, Grade 3: 1 (2.0%)
  TEAE Abdominal pain, Grade 4: 0
  TEAE Abdominal pain, Grade 5: 0
  TEAE Acute GVHD, Frequency: 32 (64.0%)
  TEAE Acute GVHD, Grade 2: 11 (22.0%)
  TEAE Acute GVHD, Grade 3: 12 (24.0%)
  TEAE Acute GVHD, Grade 4: 5 (10.0%)
  TEAE Arthralgias, Frequency: 3 (6.0%)
  TEAE Arthralgias, Grade 2: 1 (2.0%)
  TEAE Arthralgias, Grade 3: 1 (2.0%)
  TEAE Arthralgias, Grade 4: 0
  TEAE Arthralgias, Grade 5: 0
  TEAE Back Pain, Frequency: 4 (8.0%)
  TEAE Back Pain, Grade 2: 3 (6.0%)
  TEAE Back Pain, Grade 3: 0
  TEAE Back Pain, Grade 4: 0
  TEAE Back Pain, Grade 5: 0
  TEAE Decreased appetite, Frequency: 9 (18.0%)
  TEAE Decreased appetite, Grade 3: 3 (6.0%)
  TEAE Decreased appetite, Grade 4: 0
  TEAE Decreased appetite, Grade 5: 0
  TEAE Diarrhea, Frequency: 26 (52.0%)
  TEAE Diarrhea, Grade 2: 6 (12.0%)
  TEAE Diarrhea, Grade 3: 9 (18.0%)
  TEAE Diarrhea, Grade 4: 0
  TEAE Diarrhea, Grade 5: 0
  TEAE Fatigue, Frequency: 9 (18.0%)
  TEAE Fatigue, Grade 2: 2 (4.0%)
  TEAE Fatigue, Grade 3: 0
  TEAE Fatigue, Grade 4: 0
  TEAE Fatigue, Grade 5: 0
  TEAE GGT Increased, Frequency: 4 (8.0%)
  TEAE GGT Increased, Grade 2: 1 (2.0%)
  TEAE GGT Increased, Grade 3: 3 (6.0%)
  TEAE GGT Increased, Grade 4: 0
  TEAE GGT Increased, Grade 5: 0
  TEAE Generalized oedema, Frequency: 1 (2.0%)
  TEAE Generalized oedema, Grade 2: 1 (2.0%)
  TEAE Generalized oedema, Grade 3: 0
  TEAE Generalized oedema, Grade 4: 0
  TEAE Generalized oedema, Grade 5: 0
  TEAE Hyperbilirubinaemia, Frequency: 3 (6.0%)
  TEAE Hyperbilirubinaemia, Grade 2: 1 (2.0%)
  TEAE Hyperbilirubinaemia, Grade 3: 0
  TEAE Hyperbilirubinaemia, Grade 4: 0
  TEAE Hyperbilirubinaemia, Grade 5: 0
  TEAE Hyperglycaemia, Frequency: 9 (18.0%)
  TEAE Hyperglycaemia, Grade 2: 4 (8.0%)
  TEAE Hyperglycaemia, Grade 3: 2 (4.0%)
  TEAE Hyperglycaemia, Grade 4: 1 (2.0%)
  TEAE Hyperglycaemia, Grade 5: 0
  TEAE Hyperkalemia, Frequency: 3 (6.0%)
  TEAE Hyperkalemia, Grade 2: 2 (4.0%)
  TEAE Hyperkalemia, Grade 3: 0
  TEAE Hyperkalemia, Grade 4: 0
  TEAE Hyperkalemia, Grade 5: 0
  TEAE Hypocalcaemia, Frequency: 2 (4.0%)
  TEAE Hypocalcaemia, Grade 2: 1 (2.0%)
  TEAE Hypocalcaemia, Grade 3: 1 (2.0%)
  TEAE Hypocalcaemia, Grade 4: 0
  TEAE Hypocalcaemia, Grade 5: 0
  TEAE Hypokalaemia, Frequency: 8 (16.0%)
  TEAE Hypokalaemia, Grade 2: 2 (4.0%)
